Numbering of substitutions follows the chain as printed. One block for each compound: values may come before it.
Columns and labels:
[1] = target: T1, SF-rFVIIa (Homo sapiens, UniProt P08709); experiment: Isothermal titration calorimetry (iTC200) binding to SF-rFVIIa; settings: for Kd: SF-rFVIIa
T1 construct: made in house
T1 sequence (P08709 213-466 limits assumed): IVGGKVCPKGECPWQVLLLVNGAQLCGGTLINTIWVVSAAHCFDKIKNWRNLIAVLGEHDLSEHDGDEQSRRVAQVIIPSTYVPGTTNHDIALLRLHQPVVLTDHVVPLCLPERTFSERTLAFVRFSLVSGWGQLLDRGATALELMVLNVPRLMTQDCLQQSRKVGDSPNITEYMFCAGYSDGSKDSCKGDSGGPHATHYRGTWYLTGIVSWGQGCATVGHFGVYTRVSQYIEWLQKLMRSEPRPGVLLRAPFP
T1 sequence (P08709 61-212 limits assumed): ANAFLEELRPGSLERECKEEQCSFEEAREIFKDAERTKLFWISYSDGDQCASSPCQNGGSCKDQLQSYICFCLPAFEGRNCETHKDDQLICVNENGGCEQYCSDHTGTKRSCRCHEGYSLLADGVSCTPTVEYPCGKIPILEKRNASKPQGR
Procedure: (§1) All proteases were dialyzed extensively in binding buffer: 10 mM HEPES pH 7.4, 150 mM NaCl, 0.005% v/v Surfactant P20, 5 mM CaCl2. All binding experiments were carried out in binding buffer unless otherwise indicated. The active site stabilizing agent set forth Formula I was dissolved in 50 mM Tris pH 8.0 to a final concentration of 9 mM giving a yellow colour. Isothermal titration calorimetry (iTC200, from GE healthcare) was chosen as the method of choice for determining binding parameters. Each iTC200 run involved filling the cell with the protease (approximately 200 μL) and the syringe with the active site stabilizing agent (approximately 40 μL). Temperature was set as required and the protease was allowed to equilibrate under given experimental conditions (approximately 10 minutes). Typically 17-20 injections (of 2-2.5 μL) of active site stabilizing agent into the cell, containing protease, were performed. The first injection was always of 0.2 μL and was discarded from the final data analysis. Stirring speed was set between 700-1000 rpm. Filter period for data collection was 5 sec with a high feedback mode setting. Each titration was spaced by 120 sec. Raw data was processed to set the baseline, integrate each peak to get a final isotherm. This isotherm was fit to a single-site model to yield Kd, stoichiometry (n), ΔH, and ΔS values to complete characterization of binding of active site stabilizing agents to a protease. Each binding experiment was repeated at least twice. Tables 14, 15 and 16 summarizes binding of active site binding agents to SF-FVIIa and Vatreptacog alfa under varying solution conditions as described below.

[2] = target: T2, V158D/E296V/M298Q-FVIIa (Homo sapiens, UniProt P08709, E356V/M358Q/V218D); experiment: Isothermal titration calorimetry (iTC200) binding to V158D/E296V/M298Q-FVIIa
T2 construct: made in house
T2 sequence (P08709 213-466 V218D/E356V/M358Q limits assumed): T1 sequence (P08709 213-466 limits assumed) with V6D, E144V, M146Q
T2 sequence (P08709 61-212 limits assumed): T1 sequence (P08709 61-212 limits assumed)
Procedure: as §1

[3] = target: T3, rFVIIa (Homo sapiens, UniProt P08709); experiment: Isothermal titration calorimetry (iTC200) binding to rFVIIa; settings: for Kd: binding buffer
T3 construct: made in house
T3 sequence (P08709 213-466 limits assumed): T1 sequence (P08709 213-466 limits assumed)
T3 sequence (P08709 61-212 limits assumed): T1 sequence (P08709 61-212 limits assumed)
Procedure: as §1

[4] = tested on: tail bleeding in F8-KO mice; experiment: Tail bleeding in FVIII knock out (F8-KO) mice; assay type: in vivo; settings: dose 3 mg/kg i.v.
Source text: The biological in vivo efficacy and potency of recombinant factor VIIa (rFVIIa) co-formulated with the active site stabilizing agent with Formula I in the molar ratio 1:[…]; 2.5; 5; […] in FVIII knock out (F8-KO) mice (Bi L, Sarkar R, Naas T, Lawler A M, Pain J, Shumaker S L et al. Further characterization of factor VIII-deficient mice created by gene targeting: RNA and protein studies. Blood 1996; 88:3446-).
Tail bleeding was initiated in Isofluran anesthetized F8-KO mice by transection of 4 mm of the tip of the tail 5 min after dosing rFVIIa, rFVIIa:active site stabilizing agent (1:1.75) or vehicle iv in a tail vein in the mice. Bleeding time and blood loss was measured for a 30 minutes period in 37° C. saline as described elsewhere (Elm T; Karpf D M; Øvlisen K; Pelzer H; Ezban M; Kjalke M; Tranholm M. Pharmacokinetics and pharmacodynamics of a new recombinant FVIII (N8) in haemophilia A mice. Haemophilia, 2012; 18 (1), 139-145). […] The bleeding time vs dose of rFVIIa and rFVIIa:active site stabilizing agent (1:1.75) show very similar dose response curves.
The in vivo effect of serum free recombinant FVIIa (SF-rFVIIa) and SF-rFVIIa co-formulated with the active site stabilizing agent set forth in Formula I in the molar ratio 1:2.5 was studied with the same design in the tail bleeding model in F8-KO mice at the concentration 1; 2.5; 5; 10 and 15 mg/kg. […]

[5] = iTC200, binding buffer pH 7.4, 20° C.

Kd [1, 5]: 1780 nM
Compound: COc1cccc([C@H](C)NC(=O)CNC(=O)Nc2ccc(C(=N)N)cc2)c1 [Formula A, S-2-[3-(4-Carbamimidoylphenyl)ureido]-N-[1-(3-methoxyphenyl)-ethyl]-acetamide, reference compound]

fold difference in binding at 20° C. and 37° C. [2]: 21 fold | Kd ([2]; binding buffer pH 7.4, 20° C.): 2.18 nM | Kd ([2]; binding buffer, 37° C.): 46 nM | Kd ([2]; pH 5.5, 20° C.): 77 nM | Kd ([2]; pH 6.5, 20° C.): 9 nM | Kd ([2]; pH 8.5, 20° C.): 6 nM | fold difference in binding at 20° C. and 37° C. ([1]; SF-FVIIa): 17 fold | Kd ([1]; binding buffer, 37° C.): 334 nM | Kd [1, 5]: 20 nM | Kd ([1]; pH 5.5, 20° C.): 1560 nM | Kd ([1]; pH 6.5, 20° C.): 43 nM | Kd ([1]; pH 8.5, 20° C.): 130 nM | fold difference in binding at 20° C. and 37° C. [3]: 23 fold | Kd ([3]; 20° C.): 12.9 nM | Kd ([3]; 37° C.): 296 nM
Compound: N=C(N)c1ccc2[nH]c(-c3cc(CC(=O)N[C@@H](CC(=O)O)C(=O)O)cc(-c4cc(S(N)(=O)=O)ccc4O)c3O)nc2c1 [Formula I, (S)-2-{2-[5-(5-carbamimidoyl-1H-benzoimidazol-2-yl)-6,2′-dihydroxy-5′-sulfamoyl-biphenyl-3-yl]acetylamino}-succinic acid]

Kd [1, 5]: 12 nM
Compound: N=C(N)c1ccc2[nH]c(-c3cc(CC(=O)N[C@H](CC(=O)O)C(=O)O)cc(-c4cc(S(N)(=O)=O)ccc4O)c3O)nc2c1 [Formula II, (R)-2-{2-[5-(5-carbamimidoyl-1H-benzoimidazol-2-yl)-6,2′-dihydroxy-5′-sulfamoyl-biphenyl-3-yl]acetylamino}-succinic acid]

Compound: Vatreptacog Alfa: FVIIa sequence variant, V158D/E296V/M298Q-FVII, three amino acids of the wild-type human sequence replaced
In vivo tail bleeding as blood loss, mean [4]: 1207 nmol haemoglobin
